{"source": "patent US20040235855A1", "about": "“Phospholipase C inhibitors for use in treating inflammatory disorders” (priority 2003, published 2004)", "target": "T1, human PLC-β2 (Homo sapiens, UniProt Q00722)", "T1 construct": "made in house; host or cells: Sf9 cells (Spodoptera frugiperda), recombinant baculovirus", "T1 sequence (Q00722 whole entry)": "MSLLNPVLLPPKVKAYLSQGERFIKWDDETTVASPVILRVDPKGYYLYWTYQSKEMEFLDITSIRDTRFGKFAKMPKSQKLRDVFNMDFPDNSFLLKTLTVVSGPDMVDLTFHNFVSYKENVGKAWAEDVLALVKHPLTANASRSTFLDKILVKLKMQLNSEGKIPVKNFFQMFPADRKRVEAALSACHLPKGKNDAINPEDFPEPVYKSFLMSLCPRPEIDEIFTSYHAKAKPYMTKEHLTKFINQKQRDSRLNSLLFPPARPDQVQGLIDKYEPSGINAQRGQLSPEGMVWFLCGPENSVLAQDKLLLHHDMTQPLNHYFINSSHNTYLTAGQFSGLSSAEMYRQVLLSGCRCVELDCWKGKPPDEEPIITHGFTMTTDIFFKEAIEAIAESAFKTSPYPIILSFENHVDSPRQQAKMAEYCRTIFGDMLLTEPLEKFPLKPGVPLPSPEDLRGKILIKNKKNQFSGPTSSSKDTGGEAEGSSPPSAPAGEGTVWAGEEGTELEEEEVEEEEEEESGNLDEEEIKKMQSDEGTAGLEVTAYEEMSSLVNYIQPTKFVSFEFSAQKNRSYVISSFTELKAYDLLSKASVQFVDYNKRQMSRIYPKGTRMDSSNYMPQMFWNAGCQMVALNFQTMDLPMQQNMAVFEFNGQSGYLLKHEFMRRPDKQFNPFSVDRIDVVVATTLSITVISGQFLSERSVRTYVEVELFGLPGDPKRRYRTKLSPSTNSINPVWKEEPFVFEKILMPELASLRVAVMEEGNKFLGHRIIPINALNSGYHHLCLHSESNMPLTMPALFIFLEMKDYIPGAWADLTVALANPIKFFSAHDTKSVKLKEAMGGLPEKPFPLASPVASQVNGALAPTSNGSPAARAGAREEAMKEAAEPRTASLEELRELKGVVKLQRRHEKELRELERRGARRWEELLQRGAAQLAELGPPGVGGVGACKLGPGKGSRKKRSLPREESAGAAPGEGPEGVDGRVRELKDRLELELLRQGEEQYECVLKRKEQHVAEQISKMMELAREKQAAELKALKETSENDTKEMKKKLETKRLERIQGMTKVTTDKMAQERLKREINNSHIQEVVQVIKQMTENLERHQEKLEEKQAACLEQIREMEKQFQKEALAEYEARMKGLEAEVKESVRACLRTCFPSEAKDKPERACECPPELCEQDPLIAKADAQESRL", "experiment": "PLC assay using FlashPlates (96-well, immobilized [3H]PIP2 substrate)", "assay_type": "biochemical", "conditions": "purified recombinant human PLC-β2 or cytosolic human PLC-β2; hydrolysis of [3H]PIP2", "excerpt": "The hydrolysis of phosphatidylinositol-4,5-bisphosphate (PIP2) by a specific phospholipase C-β2 (PLC-β2) produces two intracellular messengers, diacylglycerol (DAG) and inositol 1,4,5-trisphosphate (IP3), which mediate the activation of protein kinase C and intracellular Ca^2+ release. A conventional organic solvent extraction method is widely used for PLC assays to isolate IP3 from the substrate PIP2. The conventional PLC-β2 assay, however is terminated by addition of acidified organic solvents and subsequent extraction and phase separation. […] Accordingly, a preferred method to test the compounds of the present invention, was developed utilizing a 96-well plate assay for PLC-β2 using immobilized radiolabeled substrate to quantitatively measure the reduction in the substrate level without a need for organic solvent extraction. The automated PLC-β2 assay described herein provides a convenient method for quantitative measurement of phospholipase C activities in a high throughput fashion. Ninety-six well Phospholipid FlashPlates were coated with 0.2 mL of 50 mM Tris/HCl (pH 7.4), 0.01% Ac-BSA and 50,000 cpm of […] (phosphatidylinositol-4,5-bisphosphate) at 4° C. for 72 h. The wells were aspirated and washed twice with PBS. The reactions were conducted directly in the wells in PLC reaction buffer containing 50 mM Tris/HCl (pH 7.2), 2.75 mM EDTA (pH 7.3), 80 mM KCl, 10 mM LiCl, 0.04% DOC and 2 mM CaCl2 in the absence or presence of the purified recombinant human PLC-β2 (prepared as described hereafter) or cytosolic human PLC-β2 from […]. Reduction of radioactivity was monitored by a Packard TopCount instrument (Packard Instrument Company, Conn., USA). […] The cells were grown in Grace's media supplemented with 10% (v/v) fetal bovine serum, 3.3 g/l yeastolate, 3.3 g/l lactalbumin hydrosylate, glutamine (6.4 mM final), 50 μg/ml gentamicin, and 50 μg/ml kanamycin. Suspension of Sf9 cells (1.0×10^6 cells/ml) were infected with 5 pfu/cell of recombinant baculovirus encoding PLC-β2 and incubated at 27° C. for 72 h. The cells were collected by centrifugation (500×g, 7 min, 4° C.) and disrupted by hypotonic lysis buffer containing 20 mM Tris/HCl, pH 7.4, 5 mM MgCl2, 2 mM EGTA, 200 μM PMSF, 200 μM benzamidine and 1 μM pepstatin A. The lysate was sonicated on ice and the nuclei and unbroken cells removed by centrifigation (500×g, 5 min, 4C.). The supernatant was recovered and clarified by centrifugation (34,000 rpm, 60 min, 4C.). The supernatant was used as a crude cytosolic fraction (Paterson, A., Boyer, J. L., Watts, V. J., Morris, A. J., Price, […]. (1995) Concentration of enzyme-dependent activation of PLC β1 and PLC β2 by Gα11 and βγ subunits. Cellular Signalling 7, 709-720). Crude cytosol prepared from Sf9 cells expressing PLC-β2 was purified initially by chromatography on a 10 ml column of Q-Sepharose FF, equilibrated in buffer A (25 mM HEPES, pH 7.2,2 mM DTT, 2 mM EDTA, 2 mM EGTA, 200 μM PMSF, 200 μM benzamidine, 1 μM pepstatin A containing 10 mM NaCl). The column was washed with 20 ml of equilibration buffer and eluted with a 200-ml gradient of 110-410 mM NaCl in buffer A. The fractions containing PLC activity were pooled and diluted with buffer A. The diluted enzyme was applied to a 4 ml column of heparin-SepharoseCL-6B equilibrated in buffer A and the column washed with 70 ml of buffer A. The column was eluted with 80 ml of gradient of 0-1.0 M NaCl in buffer A, the column eluate collected in 3 ml fractions. […]", "note": "pIC50: −log10 of the molar value."}
{"smiles": "O=C(Nc1ccccc1)Nc1ccc(C(=O)N2CCNCC2)cc1N1CCN(C(c2ccccc2)c2ccccc2)CC1", "note": "[Cpd 91, N-[2-[4-(diphenylmethyl)-1-piperazinyl]-4-(1-piperazinylcarbonyl)phenyl]-N′-phenyl-urea]", "values": [{"measurement": "pIC50", "result": 5.89}]}
{"smiles": "NC(=O)c1ccc(N2CCN(C(c3ccc(F)cc3)c3ccc(F)cc3)CC2)c(NC(=O)Nc2ccccc2)c1", "note": "[Cpd 3, 4-[4-[bis(4-fluorophenyl)methyl]-1-piperazinyl]-3-[[(phenylamino)carbonyl]amino]-benzamide]", "values": [{"measurement": "pIC50", "result": 5.82}]}
{"smiles": "NC(=O)c1ccc(N2CCN(C(c3ccncc3)c3ccc(F)cc3)CC2)c(NC(=O)NC2CCCCC2)c1", "note": "(centres unmarked) [Cpd 78]", "values": [{"measurement": "pIC50", "result": "< 5.00"}]}
{"smiles": "O=C(Nc1cc(C(=O)N2CCNCC2)ccc1N1CCN(C(c2ccccc2)c2ccccc2)CC1)NC1CCCC1", "note": "[Cpd 63, N-cyclopentyl-N′-[2-[4-(diphenylmethyl)-1-piperazinyl]-5-(1-piperazinylcarbonyl)phenyl]-urea]", "values": [{"measurement": "pIC50", "result": 4.86}]}
{"smiles": "CN(C)CCNC(=O)c1ccc(N2CCN(C(c3ccccc3)c3ccccc3)CC2)c(NC(=O)NC2CCCCC2)c1", "note": "[Cpd 30, 3-[[(cyclohexylamino)carbonyl]amino]-N-[2-(dimethylamino)ethyl]-4-[4-(diphenylmethyl)-1-piperazinyl]-benzamide]", "values": [{"measurement": "pIC50", "result": 5.01}]}
{"smiles": "CN(C)c1ccc(NC(=O)Nc2cc(C(=O)N3CCNCC3)ccc2N2CCN(C(c3ccccc3)c3ccccc3)CC2)cc1", "note": "[Cpd 58, N-[4-(dimethylamino)phenyl]-N′-[2-[4-(diphenylmethyl)-1-piperazinyl]-5-(1-piperazinylcarbonyl)phenyl]-urea]", "values": [{"measurement": "pIC50", "result": 5.11}]}
{"smiles": "NC(=O)c1ccc(N2CCCN(C(c3ccncc3)c3ccc(F)cc3)CC2)c(NC(=O)Nc2ccccc2)c1", "note": "(centres unmarked) [Cpd 79, 4-[4-[(4-fluorophenyl)-4-pyridinylmethyl]hexahydro-1H-1,4-diazepin-1-yl]-3-[[(phenylamino)carbonyl]amino]-benzamide]", "values": [{"measurement": "pIC50", "result": "< 5.00"}]}
{"smiles": "NC(=O)c1ccc(N2CCN(C(c3ccccc3)c3ccccc3)CC2)c(NC(=O)Nc2ccc(F)cc2)c1", "note": "[Cpd 13, 4-[4-(diphenylmethyl)-1-piperazinyl]-3-[[[(4-fluorophenyl)amino]carbonyl]amino]-benzamide]", "values": [{"measurement": "pIC50", "result": 5.89}]}
{"smiles": "CN(C)c1ccc(NC(=O)Nc2cc(C(N)=O)ccc2N2CCN(C(c3ccc(F)cc3)c3ccc(F)cc3)CC2)cc1", "note": "[Cpd 19, 4-[4-[bis(4-fluorophenyl)methyl]-1-piperazinyl]-3-[[[[4-(dimethylamino)phenyl]amino]carbonyl]amino]-benzamide]", "values": [{"measurement": "pIC50", "result": 5.54}]}
{"smiles": "O=C(Nc1cc(C(=O)N2CCCNCC2)ccc1N1CCN(C(c2ccccc2)c2ccccc2)CC1)NC1CCCCC1", "note": "[Cpd 25, N-cyclohexyl-N′-[2-[4-(diphenylmethyl)-1-piperazinyl]-5-[(hexahydro-1H-1,4-diazepin-1-yl)carbonyl]-phenyl]urea]", "values": [{"measurement": "pIC50", "result": 5.59}]}
{"smiles": "NC(=O)c1ccc(N2CCN(C(c3ccncc3)c3ccc(F)cc3)CC2)c(NC(=O)Nc2ccccc2)c1", "note": "(centres unmarked) [Cpd 77, 4-[4-[(4-fluorophenyl)-4-pyridinylmethyl]-1-piperazinyl]-3-[[(phenylamino)carbonyl]amino]-benzamide]", "values": [{"measurement": "pIC50", "result": "~5.00"}]}
{"smiles": "NC(=O)c1ccc(N2CCCN(C(c3ccc(F)cc3)c3ccc(F)cc3)CC2)c(NC(=O)NC2CCCCC2)c1", "note": "[Cpd 82, 4-[4-[bis(4-fluorophenyl)methyl]hexahydro-1H-1,4-diazepin-1-yl]-3-[[(cyclohexylamino)carbonyl]amino]-benzamide]", "values": [{"measurement": "pIC50", "result": "~5.00"}]}
{"smiles": "NC(=O)c1ccc(N2CCN(C(c3ccc(F)cc3)c3ccc(F)cc3)CC2)c(NC(=S)Nc2ccccc2)c1", "note": "[Cpd 22, 4-[4-[bis(4-fluorophenyl)methyl]-1-piperazinyl]-3-[[(phenylamino)thioxomethyl]amino]-benzamide]", "values": [{"measurement": "pIC50", "result": 5.92}]}
{"smiles": "NC(=O)c1ccc(N2CCN(Cc3ccccc3)CC2)c(NC(=O)Nc2ccccc2)c1", "note": "[Cpd 2, 3-[[(phenylamino)carbonyl]amino]-4-[4-(phenylmethyl)-1-piperazinyl]-benzamide]", "values": [{"measurement": "pIC50", "result": "< 4.60"}]}
{"smiles": "CC(C)NC(=O)Nc1cc(C(=O)N2CCNCC2)ccc1N1CCN(C(c2ccccc2)c2ccccc2)CC1", "note": "[Cpd 66, N-[2-[4-(diphenylmethyl)-1-piperazinyl]-5-(1-piperazinylcarbonyl)phenyl]-N′-(1-methylethyl)urea]", "values": [{"measurement": "pIC50", "result": "< 4.60"}]}
{"smiles": "Cc1cc(C)cc(NC(=O)Nc2cc(C(=O)N3CCNCC3)ccc2N2CCN(C(c3ccccc3)c3ccccc3)CC2)c1", "note": "[Cpd 42, N-(3,5-dimethylphenyl)-N′-[2-[4-(diphenylmethyl)-1-piperazinyl]-5-(1-piperazinylcarbonyl)phenyl]-urea]", "values": [{"measurement": "pIC50", "result": 5.25}]}
{"smiles": "O=C(Nc1ccccc1)Nc1cc(C(=O)N2CCNCC2)ccc1N1CCN(C2CCCCC2)CC1", "note": "[Cpd 51, N-[2-(4-cyclohexyl-1-piperazinyl)-5-(1-piperazinylcarbonyl)phenyl]-N′-phenylurea]", "values": [{"measurement": "pIC50", "result": "< 4.60"}]}
{"smiles": "CN1CCN(C(=O)c2ccc(N3CCN(C(c4ccccc4)c4ccccc4)CC3)c(NC(=O)NC3CCCCC3)c2)CC1", "note": "[Cpd 28, N-cyclohexyl-N′-[2-[4-(diphenylmethyl)-1-piperazinyl]-5-[(4-methyl-1-piperazinyl)carbonyl]-phenyl]urea]", "values": [{"measurement": "pIC50", "result": 5.25}]}
{"smiles": "O=C(Nc1ccccc1)Nc1cc(C(=O)N2CCNCC2)ccc1N1CCN(C(c2ccc(F)cc2)c2ccc(F)cc2)CC1", "note": "[Cpd 46, N-[2-[4-[bis(4-fluorophenyl)methyl]-1-piperazinyl]-5-(1-piperazinylcarbonyl)phenyl]-N′-phenylurea]", "values": [{"measurement": "pIC50", "result": 5.77}]}
{"smiles": "CC(C)C[C@H](NC(=O)c1ccc(N2CCN(C(c3ccccc3)c3ccccc3)CC2)c(NC(=O)Nc2ccccc2)c1)C(=O)O", "note": "[Cpd 32, N-[4-[4-(diphenylmethyl)-1-piperazinyl]-3-[[(phenylamino)carbonyl]amino]benzoyl]-L-leucine]", "values": [{"measurement": "pIC50", "result": 5.41}]}
{"smiles": "C[C@H](NC(=O)Nc1cc(C(N)=O)ccc1N1CCN(C(c2ccccc2)c2ccccc2)CC1)c1ccccc1", "note": "[Cpd 11, 4-[4-(diphenylmethyl)-1-piperazinyl]-3-[[[[(1S)-1-phenylethyl]amino]carbonyl]amino]-benzamide]", "values": [{"measurement": "pIC50", "result": 5.08}]}
{"smiles": "O=C(Nc1ccccc1)Nc1ccc(C(=O)N2CCNCC2)cc1N1CCN(C(c2ccc(F)cc2)c2ccc(F)cc2)CC1", "note": "[Cpd 90, N-[2-[4-[bis(4-fluorophenyl)methyl]-1-piperazinyl]-4-(1-piperazinylcarbonyl)phenyl]-N′-phenyl-urea]", "values": [{"measurement": "pIC50", "result": 6.01}]}
{"smiles": "COc1ccccc1N1CCN(c2ccc(C(N)=O)cc2NC(=O)Nc2ccccc2)CC1", "note": "[Cpd 1, 4-[4-(2-methoxyphenyl)-1-piperazinyl]-3-[[(phenylamino)carbonyl]amino]-benzamide]", "values": [{"measurement": "pIC50", "result": 4.63}]}
{"smiles": "COc1ccccc1N1CCN(c2ccc(C(=O)N3CCNCC3)cc2NC(=O)NC2CCCCC2)CC1", "note": "[Cpd 55, N-cyclohexyl-N′-[2-[4-(2-methoxyphenyl)-1-piperazinyl]-5-(1-piperazinylcarbonyl)phenyl]-urea]", "values": [{"measurement": "pIC50", "result": "< 4.60"}]}
{"smiles": "NC(=O)c1ccc(N2CCN(C(c3ccccc3)c3ccccc3)CC2)c(NC(=O)Nc2ccc([N+](=O)[O-])cc2)c1", "note": "[Cpd 5, 4-[4-(diphenylmethyl)-1-piperazinyl]-3-[[[(4-nitrophenyl)amino]carbonyl]amino]-benzamide]", "values": [{"measurement": "pIC50", "result": 5.00}]}
{"smiles": "COc1ccc(NC(=O)Nc2cc(C(N)=O)ccc2N2CCN(C(c3ccc(F)cc3)c3ccc(F)cc3)CC2)cc1", "note": "[Cpd 20, 4-[4-[bis(4-fluorophenyl)methyl]-1-piperazinyl]-3-[[[(4-methoxyphenyl)amino]carbonyl]amino]-benzamide]", "values": [{"measurement": "pIC50", "result": 5.37}]}
